Results: patent publication US9695155B2, “Herbicidal substituted pyrimidinyloxy benzene compounds” (E. I. DU PONT DE NEMOURS AND COMPANY, priority 2013, dated 2017)

How the values were obtained:
[1] = tested on: galium; test: Test C postemergence; type: in vivo, Galium aparine
Procedure, shortened: (§1)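 Sown in loam/sand → sprayed pre-emergence; or grown to 1–4 leaves in peat mix → sprayed post-emergence. Same solvent/surfactant formulation both ways. Greenhouse 13–15 d. Score 0–100 visual.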

[2] = tested on: corn; test: Test A postemergence; type: in vivo, Zea mays; details: 0 to 100 scale where 0 is no effect and 100 is complete control
Procedure, shortened: (§2)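 Scoring: eye-based comparison with untreated controls, 0 for no effect through 100 for complete control, at about day 10. Treatments: directed soil spray preemergence; foliar spray postemergence on 2–10 cm plants at the one- to two-leaf stage. Medium: loam soil with sand.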

[3] = tested on: velvetleaf; test: Test A postemergence; type: in vivo, Abutilon theophrasti; details: 0 to 100 scale where 0 is no effect and 100 is complete control; for Velvetleaf plant response rating: 125 g ai/ha
Procedure, shortened: as §2

[4] = tested on: pigweed; test: Test C preemergence; type: in vivo, Amaranthus retroflexus; details: preemergence
Procedure, shortened: as §1

[5] = tested on: Heteranthera limosa; test: Test B flooded paddy test; type: in vivo; details: Flood, 250 g ai/ha, 0 to 100 scale where 0 is no effect and 100 is complete control
Procedure, shortened: (§3)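 Greenhouse flooded-pot test: compounds dosed into 3 cm standing water over 2-leaf plants, flood held constant. Rated visually after 13–15 days on 0–100 (complete control = 100); a dash marks no test result.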

[6] = tested on: giant foxtail; test: Test A postemergence; type: in vivo, Setaria faberii; details: 0 to 100 scale where 0 is no effect and 100 is complete control
Procedure, shortened: as §2

[7] = tested on: giant foxtail; test: Test C preemergence; type: in vivo, Setaria faberii
Procedure, shortened: as §1

[8] = tested on: large (Lg) crabgrass; test: Test A postemergence; type: in vivo, Digitaria sanguinalis; details: 0 to 100 scale where 0 is no effect and 100 is complete control; for Crabgrass, Large plant response rating: 125 g ai/ha
Procedure, shortened: as §2

[9] = tested on: barnyardgrass; test: Test B flooded paddy test; type: in vivo, Echinochloa crus-galli; details: Flood, 250 g ai/ha, 0 to 100 scale where 0 is no effect and 100 is complete control
Procedure, shortened: as §3

[10] = tested on: morningglory; test: Test A postemergence; type: in vivo, Ipomoea spp.; details: 0 to 100 scale where 0 is no effect and 100 is complete control; for Morningglory plant response rating: 125 g ai/ha
Procedure, shortened: as §2

[11] = tested on: wheat, winter; test: Test C preemergence; type: in vivo, Triticum aestivum; details: preemergence
Procedure, shortened: as §1

[12] = tested on: velvetleaf; test: Test C preemergence; type: in vivo, Abutilon theophrasti; details: preemergence
Procedure, shortened: as §1

[13] = tested on: barnyardgrass; test: Test A postemergence; type: in vivo, Echinochloa crus-galli; details: 0 to 100 scale where 0 is no effect and 100 is complete control
Procedure, shortened: as §2

[14] = tested on: morningglory; test: Test C postemergence; type: in vivo, Ipomoea coccinea; details: for Morningglory plant response rating: 31 g ai/ha, 13 to 15 days
Procedure, shortened: as §1

[15] = tested on: chickweed; test: Test C postemergence; type: in vivo, Stellaria media
Procedure, shortened: as §1

[16] = tested on: yellow nutsedge; test: Test C preemergence; type: in vivo, Cyperus esculentus; details: preemergence
Procedure, shortened: as §1

[17] = postemergence, visual rating, scale 0 to 100 (0 no effect, 100 complete control)
[18] = 16 g ai/ha, postemergence, 0 is no effect, 100 is complete control
[19] = 31 g ai/ha, postemergence, visual rating, scale 0 to 100 (0 no effect, 100 complete control), 13 to 15 days
[20] = 125 g ai/ha, postemergence, visual rating, scale 0 to 100 (0 no effect, 100 complete control)
[21] = Postemergence, 62 g ai/ha, scale 0 to 100 (0 no effect, 100 complete control)
[22] = 16 g ai/ha, scale 0 to 100 (0 no effect, 100 complete control)
[23] = 62 g ai/ha, scale 0 (no effect) to 100 (complete control)
[24] = 125 g ai/ha, scale 0 (no effect) to 100 (complete control)

FC(F)(F)c1cn(-c2ccccc2Oc2ncc(Cl)cn2)nn1 [Compound 166, 5-chloro-2-[2-[4-(trifluoromethyl)-1H-1,2,3-triazol-1-yl]phenoxy]pyrimidine]
pest or weed control at 16 g/ha ([1]; Galium, post-emergence, 16 g ai/ha, postemergence, 0 is no effect, 100 is complete control, read-out: Plant response rating (0 to 100), Galium): 80%
pest or weed control at 31 g/ha ([1]; Galium, post-emergence, 31 g ai/ha, postemergence, visual rating, scale 0 to 100 (0 no effect, 100 complete control), 13 to 15 days, read-out: Galium plant response rating): 85%
pest or weed control at 125 g/ha ([1]; Galium, post-emergence, 125 g ai/ha, postemergence, visual rating, scale 0 to 100 (0 no effect, 100 complete control), read-out: Plant response rating, Galium): 95%
pest or weed control at 62 g/ha ([1]; Galium, post-emergence, Postemergence, 62 g ai/ha, scale 0 to 100 (0 no effect, 100 complete control), read-out: Plant response rating, Galium): 90%
plant injury at 125 g/ha ([2]; Zea mays, post-emergence, 240 h, 125 g ai/ha, read-out: Corn plant response rating): 50%
Corn plant response rating (crop injury, 0 = no effect, 100 = complete kill) at 500 g/ha ([2]; Zea mays, post-emergence, 240 h, 500 g ai/ha): 60%
Velvetleaf plant response rating [3]: 100
pest or weed control at 500 g/ha ([3]; Abutilon theophrasti, post-emergence, 240 h, 500 g ai/ha, read-out: Plant response rating, Velvetleaf): 100%
pest or weed control at 16 g/ha ([4]; Amaranthus retroflexus, pre-emergence, 16 g ai/ha, scale 0 to 100 (0 no effect, 100 complete control), read-out: Pigweed plant response rating): 100%
pest or weed control at 62 g/ha ([4]; Amaranthus retroflexus, pre-emergence, 62 g ai/ha, scale 0 (no effect) to 100 (complete control), read-out: Pigweed plant response rating): 100%
pest or weed control at 125 g/ha ([4]; Amaranthus retroflexus, pre-emergence, 125 g ai/ha, scale 0 (no effect) to 100 (complete control), read-out: Pigweed plant response rating): 100%
pest or weed control at 250 g/ha ([5]; Heteranthera limosa, read-out: Plant response rating, Ducksalad): 95%
pest or weed control at 125 g/ha ([6]; Setaria faberi, post-emergence, 240 h, 125 g ai/ha, read-out: Foxtail, Giant plant response rating): 90%
pest or weed control at 500 g/ha ([6]; Setaria faberi, post-emergence, 240 h, 500 g ai/ha, read-out: Plant response rating, Foxtail, Giant): 90%
pest or weed control at 16 g/ha ([7]; Setaria faberi, pre-emergence, 16 g ai/ha, preemergence, scale 0 to 100 (0 no effect, 100 complete control), read-out: Foxtail, Giant plant response rating): 100%
pest or weed control at 62 g/ha ([7]; Setaria faberi, pre-emergence, 62 g ai/ha, preemergence, scale 0 (no effect) to 100 (complete control), read-out: Foxtail, Giant plant response rating): 100%
pest or weed control at 125 g/ha ([7]; Setaria faberi, pre-emergence, 125 g ai/ha, preemergence, scale 0 (no effect) to 100 (complete control), read-out: Foxtail, Giant plant response rating): 100%
pest or weed control at 31 g/ha ([7]; Setaria faberi, pre-emergence, Preemergence, 31 g ai/ha, scale 0 to 100, 0 no effect, 100 complete control, read-out: Plant response rating, Foxtail, Giant): 100%
Crabgrass, Large plant response rating [8]: 90
pest or weed control at 500 g/ha ([8]; Digitaria sanguinalis, post-emergence, 240 h, 500 g ai/ha, read-out: Plant response rating, Crabgrass, Large): 100%
pest or weed control at 250 g/ha ([9]; Echinochloa crus-galli, read-out: Plant response rating, Barnyardgrass): 60%
Morningglory plant response rating [10]: 100
pest or weed control at 500 g/ha ([10]; Ipomoea, post-emergence, 240 h, 500 g ai/ha, read-out: Plant response rating, Morningglory): 100%
plant injury at 16 g/ha ([11]; Triticum aestivum, pre-emergence, 16 g ai/ha, scale 0 to 100 (0 no effect, 100 complete control), read-out: Wheat plant response rating): 0%
plant injury at 62 g/ha ([11]; Triticum aestivum, pre-emergence, 62 g ai/ha, scale 0 (no effect) to 100 (complete control), read-out: Wheat plant response rating): 60%
plant injury at 125 g/ha ([11]; Triticum aestivum, pre-emergence, 125 g ai/ha, scale 0 (no effect) to 100 (complete control), read-out: Wheat plant response rating): 90%
pest or weed control at 16 g/ha ([12]; Abutilon theophrasti, pre-emergence, 16 g ai/ha, scale 0 to 100 (0 no effect, 100 complete control), read-out: Velvetleaf plant response rating): 80%
pest or weed control at 62 g/ha ([12]; Abutilon theophrasti, pre-emergence, 62 g ai/ha, scale 0 (no effect) to 100 (complete control), read-out: Velvetleaf plant response rating): 100%
pest or weed control at 125 g/ha ([12]; Abutilon theophrasti, pre-emergence, 125 g ai/ha, scale 0 (no effect) to 100 (complete control), read-out: Velvetleaf plant response rating): 100%
pest or weed control at 125 g/ha ([13]; Echinochloa crus-galli, post-emergence, 240 h, 125 g ai/ha, read-out: Barnyardgrass plant response rating): 90%
pest or weed control at 500 g/ha ([13]; Echinochloa crus-galli, post-emergence, 240 h, 500 g ai/ha, read-out: Plant response rating, Barnyardgrass): 100%
Morningglory plant response rating [14, 17]: 70
pest or weed control at 16 g/ha ([14]; Ipomoea, post-emergence, 16 g ai/ha, postemergence, 0 is no effect, 100 is complete control, read-out: Plant response rating (0 to 100), Morningglory): 85%
pest or weed control at 125 g/ha ([14]; Ipomoea, post-emergence, 125 g ai/ha, postemergence, visual rating, scale 0 to 100 (0 no effect, 100 complete control), read-out: Plant response rating, Morningglory): 95%
pest or weed control at 62 g/ha ([14]; Ipomoea, post-emergence, Postemergence, 62 g ai/ha, scale 0 to 100 (0 no effect, 100 complete control), read-out: Plant response rating, Morningglory): 85%
pest or weed control at 16 g/ha ([15]; Stellaria media, post-emergence, 16 g ai/ha, postemergence, 0 is no effect, 100 is complete control, read-out: Plant response rating (0 to 100), Chickweed): 60%
pest or weed control at 31 g/ha ([15]; Stellaria media, post-emergence, 31 g ai/ha, postemergence, visual rating, scale 0 to 100 (0 no effect, 100 complete control), 13 to 15 days, read-out: Chickweed plant response rating): 80%
pest or weed control at 125 g/ha ([15]; Stellaria media, post-emergence, 125 g ai/ha, postemergence, visual rating, scale 0 to 100 (0 no effect, 100 complete control), read-out: Plant response rating, Chickweed): 95%
pest or weed control at 62 g/ha ([15]; Stellaria media, post-emergence, Postemergence, 62 g ai/ha, scale 0 to 100 (0 no effect, 100 complete control), read-out: Plant response rating, Chickweed): 90%
pest or weed control at 16 g/ha ([16]; Cyperus, pre-emergence, 16 g ai/ha, scale 0 to 100 (0 no effect, 100 complete control), read-out: Nutsedge, Yellow plant response rating): 0%
pest or weed control at 62 g/ha ([16]; Cyperus, pre-emergence, 62 g ai/ha, scale 0 (no effect) to 100 (complete control), read-out: Nutsedge, Yellow plant response rating): 35%
pest or weed control at 125 g/ha ([16]; Cyperus, pre-emergence, 125 g ai/ha, scale 0 (no effect) to 100 (complete control), read-out: Nutsedge, Yellow plant response rating): 80%

FC(F)(F)c1cnn(-c2c(Cl)cccc2Oc2ncc(Cl)cn2)c1 [Compound 167]
Plant response rating (0 to 100), Galium [1, 18]: 70
Galium plant response rating [1, 19]: 70
Plant response rating, Galium [1, 20]: 90
Plant response rating, Galium [1, 21]: 70
Corn plant response rating ([2]; 125 g ai/ha): 40
Plant response rating, Corn ([2]; 500 g ai/ha): 50
Velvetleaf plant response rating [3]: 100
Plant response rating, Velvetleaf ([3]; 500 g ai/ha): 100
Pigweed plant response rating [4, 22]: 100
Pigweed plant response rating [4, 23]: 100
Pigweed plant response rating [4, 24]: 100
Plant response rating, Ducksalad [5]: 100
Foxtail, Giant plant response rating ([6]; 125 g ai/ha): 90
Plant response rating, Foxtail, Giant ([6]; 500 g ai/ha): 90
Foxtail, Giant plant response rating ([7]; 16 g ai/ha, preemergence, scale 0 to 100 (0 no effect, 100 complete control)): 35
Foxtail, Giant plant response rating ([7]; 62 g ai/ha, preemergence, scale 0 (no effect) to 100 (complete control)): 100
Foxtail, Giant plant response rating ([7]; 125 g ai/ha, preemergence, scale 0 (no effect) to 100 (complete control)): 100
Plant response rating, Foxtail, Giant ([7]; Preemergence, 31 g ai/ha, scale 0 to 100, 0 no effect, 100 complete control): 95
Crabgrass, Large plant response rating [8]: 80
Plant response rating, Crabgrass, Large ([8]; 500 g ai/ha): 90
Plant response rating, Barnyardgrass [9]: 35
Morningglory plant response rating [10]: 80
Plant response rating, Morningglory ([10]; 500 g ai/ha): 100
Wheat plant response rating [11, 22]: 0
Wheat plant response rating [11, 23]: 5
Wheat plant response rating [11, 24]: 50
Velvetleaf plant response rating [12, 22]: 45
Velvetleaf plant response rating [12, 23]: 100
Velvetleaf plant response rating [12, 24]: 100
Barnyardgrass plant response rating ([13]; 125 g ai/ha): 70
Plant response rating, Barnyardgrass ([13]; 500 g ai/ha): 100
Plant response rating (0 to 100), Morningglory [14, 18]: 80
Morningglory plant response rating [14, 17]: 60
Plant response rating, Morningglory [14, 20]: 90
Plant response rating, Morningglory [14, 21]: 98
Plant response rating (0 to 100), Chickweed [15, 18]: 55
Chickweed plant response rating [15, 19]: 80
Plant response rating, Chickweed [15, 20]: 80
Plant response rating, Chickweed [15, 21]: 70
Nutsedge, Yellow plant response rating [16, 22]: 0
Nutsedge, Yellow plant response rating [16, 23]: 10
Nutsedge, Yellow plant response rating [16, 24]: 60
